According to patent US20170051149A1, “AZOARYLS AS REVERSIBLY MODULATABLE TUBULIN INHIBITORS” (ECOLE NORMALE SUPERIEURE DE LYON, priority 2014, published 2017):

Experiments:
Format in all cases: physicochemical
[1] = UV-Vis absorption spectra of trans and cis isomers (λstrong, εE, λiso); details: PBS pH = 7.4, 20% MeCN
Method: A(λmeas, λirrad) is used to indicate the measured UV-Vis absorption spectrum in the range 340 nm<λmeas<650 nm, as a function of the irradiating wavelength λirrad once PSS(λirrad) has been established. UV-Vis measurement of A(λmeas, λirrad) was performed. It was considered that the PSS had been established when the absorbance profile ceased to alter under continued irradiation. An isosbestic point (wavelength λiso) was found for each compound by examining where the absorption A(λmeas) was invariant with respect to changing λirrad. A(λmeas, dark) was also acquired with samples that had been kept in the dark for at least several hours, and it was assumed that no significant spectral contribution from the cis isomer was present in these spectra. […]
HPLC (high-performance liquid chromatography) was then used as described in Part A to measure ε*E(λ) and ε*Z(λ) (the separated absorption profiles of trans and cis isomers respectively, in arbitrary units which are not intercomparable in an absolute sense). It was approximated that these spectra would be identical in shape if measured under the UV-Vis conditions, so once ε*E(λ) and ε*Z(λ) were scaled appropriately relative to each other, these scaled spectra could be used to deconvolute A(λmeas, λirrad). This approximation was considered useful especially in the regions of greatest spectral interest, ie. regions of relatively strong absorption (since only rather well-absorbed wavelengths will allow significant photoisomerisation under finite photon flux). To place the arbitrary-unit absorption spectra on an absolute scale, the maximal absorption wavelength λstrong of the trans-isomer was first selected by examining A(λmeas, dark): typically, λstrong≈380 nm. with Expressing A(λstrong, dark) in units M^−1cm^−1, ε*E(λstrong) was then scaled so that εE(λstrong)=A(λstrong, dark), giving:
εE(λ)=ε*E(λ)×[A(λstrong,dark)/ε*E(λstrong)]
and the isosbestic point was used to scale the cis-isomer spectrum as per:
εZ(λ)=ε*Z(λ)×[εE(λiso)/ε*Z(λiso)]
However, using A(λstrong, dark) was preferred, since A(λiso) was typically so much smaller that the standard deviation in the scaled absorptivities which it generated was far greater.
Absorption spectra in cuvette (“UV-Vis”) were acquired on a Varian CaryScan 50 (1 cm, 100 μL or 1 mL volume) with Peltier cell temperature control unit maintained at 37° C., in PBS at pH˜7.4 containing a low percentage of cosolvent if needed (typically 2% MeCN or 5% DMSO). A ThorLabs Polychrome V monochromator with a fibre optic cable output directed into the cuvette was used to perform photoisomerisation studies by UV-Vis spectrophotometry although single LEDs of approximately 10-20 mW output, 15-20° cone angle, and 10-15 nm bandwidth FWHM, obtained commercially from Roithner Lasertechnik GmbH, were equally successful in providing repeatable monochromatic photoisomerisation. Separated spectra of trans and […] forms were acquired from the inline Diode Array Detector on the AGILENT 1260 SL coupled LC-MS system after HPLC separation. Fluorescence spectrophotometry (excitation and emission spectra) were acquired on a Varian CaryEclipse fluorescence spectrophotometer.
By the above procedure, the trans- and cis-isomers of each species were separated by HPLC as described in Part A, and ε*E(λ) and ε*Z(λ) were measured on the inline ultraviolet/visible Diode Array Detector; these were then scaled as outlined above. The parameters λstrong, εE(λstrong) and λiso are tabulated for selected compounds below (Table 1).

[2] = thermal reversion halflife of spontaneous cis->trans isomerisation; details: PBS pH = 7.4, 20% MeCN
From the text: Finally, trends in τ were ascertained by establishing the PSS at λstrong, then turning off the light source at time t0, and measuring A(λstrong, t) over time. Data were acquired for half an hour, or else the first three halflives (whichever was the shorter period), then fitted to the equation:
A(λstrong,t)=A(λstrong,dark)−[A(λstrong,dark)−A(λstrong,t0)]×e^−kt
This fit was used to return an in vitro halflife τ* for the cis->trans spontaneous thermal reversion isomerisation process, defined as τ=ln 2/k. It should be noted however, that azoaryl compounds' thermal reversion rates are known to depend strongly upon their microenvironment, such as pH and solvent/solvation effects^[7,38]. This was shown for compound (I.1), where a change of only 1.4 pH units gave a 25% change in τ*; note that different compounds are expected to respond very differently to changes in pH so no unifying trends are expected. Therefore the τ* acquired in vitro were considered appropriate only for qualitative intercomparison between samples (trend of τ* vs structure), rather than quantitative prediction of the τ values which might be experienced in cellulo or in vivo. Indeed, these in vitro τ* values appeared at least three times longer than what would have been expected based on in cellulo experiments where the pause time between activating pulses was varied.
Thermal reversion times were measured as described above. Those for selected compounds are presented below (Table 2).

[3] = photoisomerisation: photostationary state, calculated φ(λ) and E(λ), reversible cycling; details: irradiation at 390 nm
Method: In a simple analysis of the PSS(λ) and E(λ), it was approximated that ΦEZ and ΦZE (the quantum efficiencies of the photoisomerisations trans->cis and cis->trans, respectively) are equal and independent of wavelength, and also that the kinetics of spontaneous reversion could be ignored (eg. high-intensity light source). A function φ(λ) was then calculated as per: […]
If ΦEZ and ΦZE are equal and independent of wavelength, φ(λ) gives the true PSS(λ). The wavelength independence of ΦEZ and ΦZE may be an acceptable approximation in regions of relatively strong absorption within the visible spectrum. Their equality may also be an acceptable assumption: since if ΦEZ and ΦZE are unequal but only depend weakly on wavelength in regions of relatively strong absorption, then φ(λ) is a transform of the true PSS(λ); this transform preserves the features of PSS(λ) which were most desired for evaluation in this study as long as ΦEZ and ΦZE are not too different (eg less than a factor of ten difference). Indeed, the calculated φ(λ) were later confirmed by in cellulo experiments to give reliable indications of favourable wavelengths for bulk trans->cis and bulk cis->trans photoisomerisation, which is the benchmark for a suitable analysis of the PSS(λ). The advantages of calculating φ(λ) rather than exhaustively measuring the PSS(λ) experimentally are that (a) the throughput is much faster, (b) the true PSS(λ) may be difficult to achieve at weakly-absorbing wavelengths or with fast-relaxing compounds, (c) the true PSS(λ) may be difficult to measure accurately at wavelengths where one isomer strongly dominates the sample even if both are relatively strongly absorbing, and (d) the variation of PSS(λ) with changes in the local biological microenvironment (polarity, pH etc) may anyway be larger than the error incurred by the assumption φ(λ)═PSS(λ).
Also following the assumption that ΦEZ and ΦZE are equal and independent of wavelength, a photoisomerisation efficiency E(λ) was calculated as per:
E(λ)=[εE(λ)+εZ(λ)]/[εE(390)+εZ(390)]
Larger values of E(λ) therefore denote higher efficiency photoisomerisation (less photon flux is required to approach the PSS(λ)). E(λ) was parametrised to the absorption coefficients at 390 nm, since typically that wavelength gave satisfactorily strong absorption and efficient photoisomerisation. It should be noted that E(λ) are not intercomparable between different compounds. This reflects the realistic scenario that the ΦEZ (or the ΦZE) of two arbitrarily chosen compounds may differ by a significant amount, even if the approximation that ΦEZ and ΦZE are equal and independent of wavelength applies independently to each compound.
A(λstrong) was measured over time in the UV-Vis cuvette in non-degassed PBS left open to the atmosphere, […], at 37° C., while the monochromator was used to apply λirrad alternating between two values λ1 and λ2, chosen to induce net trans->cis and net cis->trans isomerisation respectively. Typical results are presented for compound I.1 (FIG. 3). The absorbance of I.1 (18 μM) was measured at λstrong=378 nm, while the irradiating wavelength was held alternately at λ1=388 nm (50 s; bulk trans->cis) then λ2=508 nm (180 s, bulk cis->trans). Higher absorbance corresponds to a greater amount of trans isomer: an absorbance of 0.27 here corresponds to an approximately 5:1 ratio of trans:cis isomer in the sample, and an absorbance of 0.12 here corresponds to an approximately 1:2 ratio of trans:cis isomer in the sample. […] Typically, compounds of the invention could be bulk-photoisomerised hundreds of times over a timescale of hours (50 representative cycles are shown in FIG. 3 for I.1), such that the majority species in a sample was photocontrollably alternated between the trans-isomer and the cis-isomer. […]

Row | SMILES | εE(λstrong) [1] [M⁻¹ cm⁻¹] | λstrong [1] [nm] | τ, reversion time [2] | change in absorbance spectrum upon irradiation [3]
1 | COc1ccc(N=Nc2cc(OC)c(OC)c(OC)c2)c(O)c1 [I.8, 5-methoxy-2-((3,4,5-trimethoxyphenyl)diazenyl)phenol] | 14900 | 390 | TOO FAST | no measurable change in absorbance spectrum
2 | COc1ccc(N=Nc2cc(OC)c(OC)c(OC)c2)c(N)c1 [I.16, 5-methoxy-2-((3,4,5-trimethoxyphenyl)diazenyl)aniline] | 14430 | 410 | TOO FAST | no measurable change in absorbance spectrum
3 | COc1ccc(N=Nc2cc(OC)c(OC)c(OC)c2)c(O)c1C [I.17, 3-methoxy-2-methyl-6-((3,4,5-trimethoxyphenyl)diazenyl)phenol] | 10872 | 385 | TOO FAST | no measurable change in absorbance spectrum
